Laboratory results reported in patent US20150051231A1, “SYNERGISTIC COMBINATIONS OF TRIAZOLES, STROBILURINS AND BENZIMIDAZOLES, USES, FORMULATIONS, PRODUCTION PROCESSES AND APPLICATIONS USING THE SAME” (FMC Quimica do Brasil Ltda., priority 2010, published 2015).
Read-outs that look alike come from different tables or passages of the source.

Legend:
Format in all cases: in vivo
[1] = tested on: Phakopsora pachyrhizi Sydow; settings: three preventive applications from R1
Description: (§1) This study was conducted to evaluate the efficacy of the products in the control of Asian soybean rust (Valiosa). Preventive applications started in R1, the second application was made 19 days after the first (in R5.1) and the third application was made 15 days after the second (in R5.5). Emulsifiable mineral oil Assist was added at the dose of 0.5% v/v in all treatments, except for the PrioriXtra treatments, in which 0.5% v/v Nimbus was added.

[2] = tested on: Phakopsora pachyrhizi Sydow; test: Field trial, soybean rust AUDPC and yield (Table 6), Rondonópolis-MT
Excerpt: (§2) The association of azoxystrobin with the tebuconazole+carbendazim mixture provided high control efficacy of rust (see Table 6 below). […] The association of the three fungicides tebuconazole, carbendazim and azoxystrobin provides effective control of target spot (Corynespora cassiicola) and anthracnose (Colletotrichum truncatum) (see Table 5 above), and contains fungicides with three modes of action—carbendazim (benzimidazole)—acting on the integrity of tubulin; tebuconazole (triazole)—sterol synthesis inhibitors; azoxystrobin (strobilurin)—inhibits mitochondrial respiration.
as §2, with “of kresoxim-methyl” for “of azoxystrobin”, “6 above).” for “6 below).”, “and kresoxim-methyl” for “and azoxystrobin”, “[…] (strobilurin)-inhibits” for “azoxystrobin (strobilurin)—inhibits”

[3] = tested on: Phakopsora pachyrhizi Sydow; settings: three preventive applications from R1; remark: listed apart in the source
Description: This study was conducted to evaluate the efficacy of the products in the control of Asian soybean rust. Preventive applications started in R1, with the second application occurring 20 days after the first application and the third application 15 days after the second. Emulsifiable mineral oil Assist was added, at the dose of 0.5% v/v in all treatments, except for the PrioriXtra treatments, in which 0.5% v/v Nimbus was added, and Fox, in which Aureo was added at the dose of 0.4 L/ha.

[4] = tested on: Colletotrichum truncatum; test: Anthracnose severity in soybean 14 days after the third application (Table 5), Rondonópolis-MT; settings: for Severity (%) C. truncatum: 14 days after the third application; for control of anthracnose (C. truncatum) in soybean crops, in words: isolated use, PrioriXtra under conditions of high disease severity
Excerpt: (§3) In addition to these benefits, the association of the three fungicides—tebuconazole, carbendazim and azoxystrobin or tebuconazole, carbendazim and kresoxim-methyl provides greater safety regarding protection against the emergence of fungi resistant to fungicides and improved control spectrum.

[5] = tested on: Phakopsora pachyrhizi Sydow; settings: three preventive applications from R1; remark: listed apart in the source
Description: as §1, with “(Favorita).” for “(Valiosa).”, “R4)” for “R5.1)”, “R5.3).” for “R5.5).”, “added. […] The efficacy of BF 452 and BF 465 is consistent, reducing the disease throughout the soybean plant canopy.” for “added.”

[6] = tested on: Phakopsora pachyrhizi Sydow; settings: three preventive applications from V9
Description: This study was conducted to evaluate the efficacy of the products in the control of Asian rust. The start of preventive applications in V9, the second application was made 20 days after the first (in R4) and the third application was made 15 days after the second. Emulsifiable mineral oil Assist was added, at the dose of 0.5% v/v in all treatments, except for the PrioriXtra treatments, in which 0.5% v/v Nimbus was added, and Fox, in which Aureo was added at the dose of 0.4 L/ha.

[7] = tested on: Phakopsora pachyrhizi Sydow; test: Field trial, interactions of fungicides for control of Asian soybean rust, tebuconazole series (Tables 1 and 3), Rondonópolis-MT; settings: for control of rust (Phakopsora pachyrhizi Sydow) in soybean crops, in words: isolated use; for Control (%) Lower canopy, obtained by AUDPC / Control (%) Upper canopy, obtained by AUDPC: rates g/ha ai: Kresoxim-methyl 125, Azoxystrobin 30, Tebuconazole 100, Teb+Carb+Kresoxim 100 + 200 + 125, Teb+Carb+Azoxystrobin 100 + 200 + 30, Teb+Carb 100 + 200
Excerpt: (See Table 1 below), carbendazim even at a dose of 250 g/ha ai, and tebuconazole at the dose of 100 g/ha ai.
The association of azoxystrobin with the tebuconazole+carbendazim mixture (BF 488) provided a control efficacy gain and a residual control effect even under high pressure of Asian rust. […] The addition of azoxystrobin from 6 g/ha ai in the mixture of tebuconazole+carbendazim (100+200 g/ha ai, respectively) has already reflected in rust efficacy gain, providing control similar to the efficacy standard of azoxystrobin+cyproconazole (60+24 g/ha ai, respectively), and this product is marketed by Syngenta as PrioriXtra®. The addition of azoxystrobin in doses of 18, 24 and 30 g/ha ai together with tebuconazole+carbendazim was effective for obtaining yields higher than the market standard containing 60 g/ha of azoxystrobin.
The association of kresoxim-methyl with the tebuconazole+carbendazim mixture (BF 452) provided a control efficacy gain and a residual control effect even under high pressure of Asian rust. […] The addition of kresoxim-methyl from 75 g/ha ai in the mixture of tebuconazole+carbendazim (100+200 g/ha ai, respectively) has already reflected in rust efficacy gain, providing control similar to the efficacy standard of azoxystrobin+cyproconazole (60+24 g/ha ai, respectively), and this product is marketed by Syngenta as PrioriXtra®.
(§4) A study was prepared to analyze the interaction effect using the multiplicative model of distribution proposed by Colby (1967), using Equation 1 below to calculate the expected response: […]
(§5) wherein E is the expected reduction in disease development (such as the reduction in the percentage of expected control or the reduction in the area under the disease-progress curve), and x and y represent the reduction in disease development achieved by treatment with fungicide x and y, respectively.
The possible interaction responses are: • a) antagonism, which is characterized by joint action of two fungicides showing the response of a test organism in their combination that is lower than the expected response, obtained by appropriate reference models, as proposed by Colby (1967); • b) synergism, which is the cooperative action of two fungicides showing a response in the test organism on the joint application that is higher than the expected response obtained by appropriate reference models, and • c) additive, which occurs when two fungicides react by presenting a response in the test organism on the joint application that is equal to the expected response obtained by appropriate reference models.
To use the model proposed by Colby, the association tebuconazole+carbendazim (100+200, respectively) was established for a comparative test with azoxystrobin or kresoxim-methyl and a response of the type of interaction (see Table 3 below).

[8] = tested on: Corynespora cassiicola; test: Target spot severity in soybean 14 days after the third application (Table 5), Rondonópolis-MT; settings: for Severity (%) C. cassiicola: 14 days after the third application; for control of target spot (C. cassiicola) in soybean crops, in words: isolated use, PrioriXtra under conditions of high disease severity
Excerpt: as §3

[9] = tested on: Phakopsora pachyrhizi Sydow; test: Field trial, interactions of fungicides for control of Asian soybean rust, flutriafol series (Tables 2 and 4), Rondonópolis-MT; settings: for Control (%) Lower canopy, obtained by AUDPC / Control (%) Upper canopy, obtained by AUDPC: rates g/há ai: Kresoxim-methyl 125, Azoxystrobin 30, Flutriafol 62.5, Flut+Carb+Kresoxim 62.5 + 200 + 125, Flut+Carb+Azoxystrobin 62.5 + 200 + 30, Flut+Carb 62.5 + 200
Description: as §4, §5
Regarding the study of the interaction effect for the association of flutriafol+carbendazim+azoxystrobin and flutriafol+carbendazim+kresoxim-methyl, the model proposed by Colby was used.

## CC(C)(C)C(O)(CCc1ccc(Cl)cc1)Cn1cncn1 (racemic) [tebuconazole, (RS)-1-p-chlorophenyl-4,4-dimethyl-3-(1H-1,2,4-triazol-1-ylmethyl)pentan-3-ol]
[1]
  efficacy in controlling soybean rust, in words: not effective in controlling soybean rust
[2]; rate 100 g/ha a.i.
  AUPDC* Lower Canopy: 747.4
  AUPDC* Upper Canopy: 227.5
  Productivity: 2570.8 kg/ha
[3]
  efficacy in controlling soybean rust, in words: not effective in controlling soybean rust
[4]; rate 100 g/ha a.i.
  Severity (%) C. truncatum: 30.0%
[4]
  control of anthracnose (C. truncatum) in soybean crops, in words: not effective
[5]
  efficacy in controlling soybean rust, in words: not effective in controlling soybean rust
[6]
  efficacy in controlling soybean rust, in words: not effective in controlling soybean rust
[7]
  control of rust (Phakopsora pachyrhizi Sydow) in soybean crops, in words: not effective in controlling rust
  Control (%) Lower canopy, obtained by AUDPC: 32%
  Control (%) Upper canopy, obtained by AUDPC: 71%
[7]; rate 100 g/ha a.i.
  AUPDC* Lower Canopy: 896.0
  AUPDC* Upper Canopy: 427.0
  Productivity: 2152.0 kg/ha
[8]; rate 100 g/ha a.i.
  Severity (%) C. cassiicola: 23.5%
[8]
  control of target spot (C. cassiicola) in soybean crops, in words: not effective

## CO/N=C(/C(=O)OC)c1ccccc1COc1ccccc1C [kresoxim-methyl, methyl(E)-methoxyimino[α-(o-tolyloxy)-o-tolyl]acetate]
[2]; rate 125 g/ha a.i.
  AUPDC* Lower Canopy: 1245.9
  AUPDC* Upper Canopy: 1074.1
  Productivity: 1848.5 kg/ha
[9]; rate 125 g/ha a.i.
  AUPDC* Lower Canopy: 1415.8
  AUPDC* Upper Canopy: 1261.3
  Productivity: 1479.5 kg/ha
[9]
  Control (%) Lower canopy, obtained by AUDPC: 18.0%
  Control (%) Upper canopy, obtained by AUDPC: 15.5%
[4]; rate 125 g/ha a.i.
  Severity (%) C. truncatum: 19.5%
[4]
  control of anthracnose (C. truncatum) in soybean crops, in words: not effective
[7]
  control of rust (Phakopsora pachyrhizi Sydow) in soybean crops, in words: not effective in controlling rust
  Control (%) Lower canopy, obtained by AUDPC: 13%
  Control (%) Upper canopy, obtained by AUDPC: 34%
[7]; rate 125 g/ha a.i.
  AUPDC* Lower Canopy: 1146.0
  AUPDC* Upper Canopy: 978.0
  Productivity: 1349.0 kg/ha
[8]; rate 125 g/ha a.i.
  Severity (%) C. cassiicola: 22.3%
[8]
  control of target spot (C. cassiicola) in soybean crops, in words: not effective

## COC(=O)Nc1nc2ccccc2[nH]1 [carbendazim]
[2]; rate 250 g/ha a.i.
  AUPDC* Lower Canopy: 361.8
  AUPDC* Upper Canopy: 247.5
  Productivity: 1323.7 kg/ha
[9]; rate 250 g/ha a.i.
  AUPDC* Lower Canopy: 1576.3
  AUPDC* Upper Canopy: 1317.0
  Productivity: 1293.0 kg/ha
[7]
  control of rust (Phakopsora pachyrhizi Sydow) in soybean crops, in words: not effective in controlling rust
[7]; rate 250 g/ha a.i.
  AUPDC* Lower Canopy: 261.0
  AUPDC* Upper Canopy: 1148.0
  Productivity: 1324.0 kg/ha

## OC(Cn1cncn1)(c1ccc(F)cc1)c1ccccc1F (racemic) [flutriafol, (RS)-2,4′-difluoro-α-(1H-1,2,4-triazol-1-ylmethyl)benzhydryl alcohol]
[9]; isolated use
  control of rust (Phakopsora pachyrhizi Sydow) in soybean crops, in words: not effective in controlling rust
[9]; rate 62.5 g/ha a.i.
  AUPDC* Lower Canopy: 1312.6
  AUPDC* Upper Canopy: 1097.2
  Productivity: 1578.2 kg/ha
[9]
  Control (%) Lower canopy, obtained by AUDPC: 24.0%
  Control (%) Upper canopy, obtained by AUDPC: 26.5%
[4]; rate 62.5 g/ha a.i.
  Severity (%) C. truncatum: 31.3%
[4]
  control of anthracnose (C. truncatum) in soybean crops, in words: not effective
[8]; rate 62.5 g/ha a.i.
  Severity (%) C. cassiicola: 22.5%
[8]
  control of target spot (C. cassiicola) in soybean crops, in words: not effective
